In assay [1] the test system is 60 human tumour cell lines. In words: NCI-60 one-dose screen, whole panel statistics. The note with it: mean growth percentage against all 60 tumor cell lines, 10 μM. Type of assay: cell-based. As for the experimental part:
The NCI‐60 cell line panel includes 60 human tumour cell lines. The effect of CH3 on tumour cell growth was tested at National Cancer Institute, Developmental Therapeutics Program (NCI‐DTP) by following the protocol as described previously.[47]
We next evaluate the inhibitory efficacy of CH3 against a panel of 60 human cancer cell lines at the NCI‐DTP. […] To further compare the efficacy of CH3 in the inhibition of NCI 60 cells, we examined the inhibitory effects of CH3 on 60 cells by using five doses of CH3.
FIGURE 5 The effect of CH3 treatment in the NCI‐60 human tumor cell line panel. (A) Mean graph display of NCI‐60 cell line screening data for CH3. The presented result is a one‐dose mean graph display of NCI‐60 cell line screening data for CH3 at 10 μM. The number reported for the one‐dose assay is growth relative to the no‐drug control. Bars deflecting to the right of the mean indicate relatively high sensitivity, and bars deflecting to the left of the mean indicate relatively low sensitivity to CH3. Experiments were performed at the NCI‐DTP. (B) Dose–response curves of CH3 for breast and ovarian cell lines from NCI‐60 cell line panel. All cells were tested at the NCI‐DTP in the presence of CH3 at five concentrations (0.01 μM, 0.1 μM, 1 μM, 10 μM and 100 μM). […]

A further assay relates to IGROV1 cells. In words: Flow cytometry cell cycle analysis (propidium iodide). Format: cell-based, human. The note with it: 1 µM, FACS. The text has this:
And‐1 is involved in DNA replication in the S‐phase and is required for the S‐phase progression.[15] We assumed that And‐1 inhibitors should be able to inhibit DNA replication by targeting And‐1.
Supplementary Figure S1. Identification of novel And-1 inhibitors. […]
Molecular weight of each compound was indicated. (C) Flow cytometry

Another assay addresses T1, And‐1 (Homo sapiens, UniProt O75717).
T1 construct: expressed in transfected cells
T1 sequence (O75717 1-1129): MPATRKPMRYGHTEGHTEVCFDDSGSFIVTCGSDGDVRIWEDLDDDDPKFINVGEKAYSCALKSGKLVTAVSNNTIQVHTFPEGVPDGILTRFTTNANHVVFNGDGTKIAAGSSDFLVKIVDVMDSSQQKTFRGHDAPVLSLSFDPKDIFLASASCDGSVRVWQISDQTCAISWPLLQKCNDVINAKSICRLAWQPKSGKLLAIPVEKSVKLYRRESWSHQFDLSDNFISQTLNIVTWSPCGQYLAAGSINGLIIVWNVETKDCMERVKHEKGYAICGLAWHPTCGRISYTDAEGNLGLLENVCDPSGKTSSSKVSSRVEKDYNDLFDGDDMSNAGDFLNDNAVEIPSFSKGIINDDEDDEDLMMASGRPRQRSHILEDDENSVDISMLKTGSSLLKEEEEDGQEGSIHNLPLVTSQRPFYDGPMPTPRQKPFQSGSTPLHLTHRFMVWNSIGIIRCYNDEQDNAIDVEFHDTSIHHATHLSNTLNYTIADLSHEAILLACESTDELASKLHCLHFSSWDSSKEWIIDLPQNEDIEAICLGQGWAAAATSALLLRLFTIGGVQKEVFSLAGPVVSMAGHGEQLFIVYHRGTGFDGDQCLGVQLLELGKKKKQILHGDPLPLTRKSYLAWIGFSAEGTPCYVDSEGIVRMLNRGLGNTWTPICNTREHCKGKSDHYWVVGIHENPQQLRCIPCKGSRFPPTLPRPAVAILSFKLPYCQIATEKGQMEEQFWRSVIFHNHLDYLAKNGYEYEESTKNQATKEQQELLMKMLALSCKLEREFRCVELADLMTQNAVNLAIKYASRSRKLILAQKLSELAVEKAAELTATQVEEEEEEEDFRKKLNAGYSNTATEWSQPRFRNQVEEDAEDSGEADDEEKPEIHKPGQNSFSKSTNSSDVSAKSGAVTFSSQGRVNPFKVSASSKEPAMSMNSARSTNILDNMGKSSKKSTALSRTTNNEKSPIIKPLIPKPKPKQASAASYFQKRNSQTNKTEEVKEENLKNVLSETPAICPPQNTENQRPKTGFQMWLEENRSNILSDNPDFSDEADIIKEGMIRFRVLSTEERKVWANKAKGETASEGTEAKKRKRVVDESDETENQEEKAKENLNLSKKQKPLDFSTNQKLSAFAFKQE
The assay can be described thus: Immunoblot of And‐1 expression in IGROV1 cells. Format: cell-based. The conditions noted are these: read-out: IC50, And‐1 expression. The text has this: The assay was as previously described.[45]
To evaluate whether And‐1 is required for tumor survival, we examined the dependence of a broad range of tumor cells on And‐1 by using dependency score analysis from DepMap (https://depmap.org/portal/). […] To identify And‐1 specific pharmacologic inhibitor, we established an HTS assay to identify small molecules that can inhibit And‐1 by inducing its degradation. To this end, we first established two stable cell lines, HEK293T‐And‐1‐Luc expressing And‐1 protein fused to a luciferase reporter gene, and HEK293T‐Luc expressing luciferase only (Figure 1B). HEK293T‐And‐1‐Luc cells allow us to monitor And‐1 protein levels by measuring luciferase activity in a high‐throughput manner. Using these cell lines, we conducted a screening for And‐1 inhibitors against a LOPAC small molecule library by using a quantitative HTS (qHTS) as we described previously.[46]
(A) Dependency score of WDHD1/And‐1 analyzed by DepMap. […] (B) Establishment of HEK293T‐And‐1‐Luc and HEK293T‐Luc cells for the high‐throughput screen (HTS). (C) Schematic diagram of quantitative HTS (qHTS) for And‐1 inhibitors. (D) Immunoblot analyses to detect And‐1 expression in IGROV1 cells treated with resveratrol at indicated concentrations. (E) Chemical structures of resveratrol and its three analogs as indicated. (F) Left, immunoblot analyses to detect And‐1 expression in IGROV1 cells treated with And‐1 inhibitors at the indicated concentration. Right, quantification of And‐1 expression shown in the left panel.
(In western blotting, separated proteins are transferred to a membrane and probed.)

The structures appear in SMILES notation.

On to `OB1OCc2cc(/C=C/c3ccc(Cl)c(Cl)c3)ccc21` [CH3, (E)‐5‐(3,4‐dichlorostyryl)benzo[c][1,2]oxaborol‐1(3H)‐ol], for which the “Growth Percent (Mean)” value in assay [1] was determined as 1.84%. The “percentage of cells in the S‐phase” value in the assay with IGROV1 cells is given as “reduced the percentage of cells in the S‐phase”. The DC50 on And‐1 was 2080 nM.

For the origin of these results see paper PMC8684776, “Discovery and characterization of potent And‐1 inhibitors for cancer treatment” (Clinical and Translational Medicine, 2021).
